Results from EP0350948B1, “Porphyrin derivatives” (TOYOHAKKA KOGYO KABUSHIKI KAISHA, priority 1988, dated 1990).

Columns and labels:
[1] = system: nitrosoamine-induced pancreatic cancer; assay: in vivo hemorrhagic necrosis effect; set-up: species or system hamsters; key to Hemorrhagic necrosis effect: four scales of G4, G3, G2 and G1; four scales of G4, G3, G2 and G1; four scales of G4, G3, G2 and G1; four scales of G4, G3, G2 and G1; details: for photograph of a cancer mass (Fig. 2) / photograph of a cancer mass (Fig. 1): 24 hours after administration, Cn-Ga-DP-diAsp; for photograph of a cancer mass (Fig. 2): n = even numbers; for Hemorrhagic necrosis effect: intensity of hemorrhagic necrosis at 24 hours following i.v. administration, and pathological study; for photograph of a cancer mass (Fig. 1): n = odd numbers
Protocol: Cancer bearing hamsters of Experiment 1 were i.v. administered the test substance C6-Ga-DP-diAsp (10) (10 mg/ml) which had been diluted with phosphate buffer at 25 mg/kg bodyweight and 12.5 mg/kg bodyweight respectively. The animals were exsanguinated and autopsied at 24 hours after administration, and observed.
The evaluation was based on the four scales of G4, G3, G2 and G1.

[2] = system: nitrosoamine-induced pancreatic cancer; assay: laser irradiation to the extirpated organ (excited fluorescent spectrum, N2-PLS measurement), tumor to tissue ratio; format: in vivo, Golden hamsters; details: i.v. 25 mg/kg bodyweight, organs extirpated at 24 hours after administration
Protocol: Golden hamsters (males, 5 per group, bodyweight approximately 150 g) were implanted subcutaneously tumor cells of the nitrosoamine-induced pancreatic cancer. After 14 to 21 days following implantation, animals were intravenously (i.v.) administered the test substance EG-Ga-DP-diGly (10 mg/ml) which had been diluted with phosphate buffer at 25 mg/kg bodyweight. At 24 hours after administration, the organs including the tumor were extirpated, irradiated with N2-pulsed laser (N2, 337 nm, 2 ns, 400 - 1000 nm), and measured of excited fluorescent spectrum. The wavelengths of 600 - 900 nm were studied using the peak wavelength of NADH at 470 nm as a reference. (N2-PLS measurement). […] (Tumor to tissue ratio).
Excited fluorescent spectra of the organs extirpated at 24 hours after administration were measured, and the peak wavelength at 600 - 900 nm was calculated by setting the peak wavelength at 470 nm as the reference 1. As fluorescence in Mn, Fe and Cu complexes is not sufficiently intense as to enable N2-PLS measurement, the extraction method was applied to these compounds. At 24 hours following administration, the organs were extracted with an organic solvent (such as chloroform-methanol) via acetone powder, and the obtained extract was measured of UV or HPLC to calculate the tumor to tissue ratio.

Question: How did the “photograph of a cancer mass (Fig. 2)” value [1] turn out when `CCCCCCCCCCCCOC(C)C1=C(C)c2cc3[nH]c(cc4nc(cc5[nH]c(cc1n2)c(C)c5C(C)OCCCCCCCCCCCC)C(C)=C4CCC(=O)NC(CC(=O)O)C(=O)O)c(CCC(=O)NC(CC(=O)O)C(=O)O)c3C.[Ga]` (centres unmarked) [(22) C12-Ga-DP-diAsp, 2,4-bis (1-dodecyloxyethyl)-Ga-deuteroporphynyl diaspartic acid] was run?
Answer: The value was “hemorrhagic necrosis”.

Question: And the Hemorrhagic necrosis effect [1]?
Answer: The Hemorrhagic necrosis effect was “G2”.

Question: What about the tumor/tissue cancer/ kidney [2] of the same compound?
Answer: Its tumor/tissue cancer/ kidney is 8.54.

Question: What about the tumor/tissue cancer/ liver [2] of the same compound?
Answer: The tumor/tissue cancer/ liver was 4.38.

Question: And the tumor/tissue cancer/ lung [2]?
Answer: Its tumor/tissue cancer/ lung is 7.00.

Question: And the tumor/tissue cancer/ serum [2]?
Answer: Its tumor/tissue cancer/ serum is 1.35.

Question: For `C=CC1=C(C)C2=Cc3c(C(C)OCCO)c(C)c4[n]3[Ga][n]3c(c(C)c(CCC(=O)NC(CC(=O)O)C(=O)O)c3=CC3=NC(=C4)C(C)=C3CCC(=O)NC(CC(=O)O)C(=O)O)=CC1=N2` (centres unmarked) [(2) monoEG-Ga-DP-diAsp, 2-[1-(2-hydroxyethyloxy)ethyl]-4-ethenyl-Ga-deuteroporphynyl diaspartic acid], which Hemorrhagic necrosis effect [1] is on record?
Answer: The Hemorrhagic necrosis effect was “G1”.

Question: And the tumor/tissue cancer/ kidney [2]?
Answer: The tumor/tissue cancer/ kidney was 1.32.

Question: And the tumor/tissue cancer/ liver [2]?
Answer: Its tumor/tissue cancer/ liver is 2.30.

Question: What about the tumor/tissue cancer/ lung [2] of the same compound?
Answer: The tumor/tissue cancer/ lung was 1.50.

Question: `CCCCOC(C)C1=C(C)C2=Cc3c(C(C)OCCCC)c(C)c4[n]3[Ga][n]3c(c(C)c(CCC(=O)NC(CC(=O)O)C(=O)O)c3=CC3=NC(=C4)C(C)=C3CCC(=O)NC(CC(=O)O)C(=O)O)=CC1=N2` (centres unmarked) [(8) C4-Ga-DP-diAsp, 2,4-bis(1-butoxyethyl)-Ga-deuteroporphynyl diaspartic acid] was tested. Which “photograph of a cancer mass (Fig. 2)” value [1] did it give?
Answer: The value was “hemorrhagic necrosis”.

Question: What about the “photograph of a cancer mass (Fig. 1)” value [1] of the same compound?
Answer: Its value is “hemorrhagic necrosis”.

Question: And the Hemorrhagic necrosis effect [1]?
Answer: The Hemorrhagic necrosis effect was “G4”.

Question: What about the tumor/tissue cancer/ kidney [2] of the same compound?
Answer: Its tumor/tissue cancer/ kidney is 7.72.

Question: What about the tumor/tissue cancer/ liver [2] of the same compound?
Answer: Its tumor/tissue cancer/ liver is 3.54.

Question: What about the tumor/tissue cancer/ lung [2] of the same compound?
Answer: Its tumor/tissue cancer/ lung is 4.47.

Question: And the tumor/tissue cancer/ serum [2]?
Answer: Its tumor/tissue cancer/ serum is 2.00.

Question: For `CCOC(C)C1=C(C)C2=Cc3c(C(C)OCC)c(C)c4[n]3[Ga][n]3c(c(C)c(CCC(=O)NC(CC(=O)O)C(=O)O)c3=CC3=NC(=C4)C(C)=C3CCC(=O)NC(CC(=O)O)C(=O)O)=CC1=N2` (centres unmarked) [(5) C2-Ga-DP-diAsp, 2,4-bis(1-ethoxyethyl)-Ga-deuteroporphynyl diaspartic acid], which “photograph of a cancer mass (Fig. 2)” value [1] is on record?
Answer: The value was “hemorrhagic necrosis”.

Question: What about the Hemorrhagic necrosis effect [1] of the same compound?
Answer: Its Hemorrhagic necrosis effect is “G1”.

Question: What about the tumor/tissue cancer/ kidney [2] of the same compound?
Answer: The tumor/tissue cancer/ kidney was 1.25.

Question: And the tumor/tissue cancer/ liver [2]?
Answer: The tumor/tissue cancer/ liver was 0.71.

Question: What about the tumor/tissue cancer/ lung [2] of the same compound?
Answer: The tumor/tissue cancer/ lung was 1.25.

Question: What about the tumor/tissue cancer/ serum [2] of the same compound?
Answer: Its tumor/tissue cancer/ serum is 1.16.

Question: How did the “photograph of a cancer mass (Fig. 1)” value [1] turn out when `CCCOC(C)C1=C(C)C2=Cc3c(C(C)OCCC)c(C)c4[n]3[Ga][n]3c(c(C)c(CCC(=O)NC(CC(=O)O)C(=O)O)c3=CC3=NC(=C4)C(C)=C3CCC(=O)NC(CC(=O)O)C(=O)O)=CC1=N2` (centres unmarked) [(6) C3-Ga-DP-diAsp, 2,4-bis(1-propoxyethyl)-Ga-deuteroporphynyl diaspartic acid] was run?
Answer: The value was “hemorrhagic necrosis”.

Question: What about the Hemorrhagic necrosis effect [1] of the same compound?
Answer: Its Hemorrhagic necrosis effect is “G2”.

Question: And the tumor/tissue cancer/ kidney [2]?
Answer: Its tumor/tissue cancer/ kidney is 14.44.

Question: What about the tumor/tissue cancer/ liver [2] of the same compound?
Answer: The tumor/tissue cancer/ liver was 2.95.

Question: And the tumor/tissue cancer/ lung [2]?
Answer: The tumor/tissue cancer/ lung was 3.42.

Question: And the tumor/tissue cancer/ serum [2]?
Answer: Its tumor/tissue cancer/ serum is 5.91.

Question: For `CCCCCCCCCOC(C)C1=C(C)c2cc3[nH]c(cc4nc(cc5[nH]c(cc1n2)c(C)c5C(C)OCCCCCCCCC)C(C)=C4CCC(=O)NC(CC(=O)O)C(=O)O)c(CCC(=O)NC(CC(=O)O)C(=O)O)c3C.[Ga]` (centres unmarked) [(15) C9-Ga-DP-diAsp, 2,4-bis(1-nonyloxyethyl)-Ga-deuteroporphynyl diaspartic acid], which “photograph of a cancer mass (Fig. 1)” value [1] is on record?
Answer: Its value is “hemorrhagic necrosis”.

Question: And the Hemorrhagic necrosis effect [1]?
Answer: Its Hemorrhagic necrosis effect is “G2”.

Question: What about the tumor/tissue cancer/ kidney [2] of the same compound?
Answer: Its tumor/tissue cancer/ kidney is 3.54.

Question: What about the tumor/tissue cancer/ liver [2] of the same compound?
Answer: The tumor/tissue cancer/ liver was 2.07.

Question: What about the tumor/tissue cancer/ lung [2] of the same compound?
Answer: Its tumor/tissue cancer/ lung is 3.40.

Question: What about the tumor/tissue cancer/ serum [2] of the same compound?
Answer: Its tumor/tissue cancer/ serum is 1.12.

Question: Which results are given for `CCCCCOC(C)C1=C(C)C2=Cc3c(C(C)OCCCCC)c(C)c4[n]3[Ga][n]3c(c(C)c(CCC(=O)NC(CC(=O)O)C(=O)O)c3=CC3=NC(=C4)C(C)=C3CCC(=O)NC(CC(=O)O)C(=O)O)=CC1=N2` (centres unmarked) [(9) C5-Ga-DP-diAsp, 2,4-bis(1-pentyloxyethyl)-Ga-deuteroporphynyl diaspartic acid]?
Answer: photograph of a cancer mass (Fig. 1) [1]: hemorrhagic necrosis; Hemorrhagic necrosis effect [1]: G4; tumor/tissue cancer/ kidney [2]: 6.58; tumor/tissue cancer/ liver [2]: 4.07; tumor/tissue cancer/ lung [2]: 3.89; tumor/tissue cancer/ serum [2]: 0.89
